Test results taken from the supplement of paper PMC10627819.

Legend:
Assay in all cases: fitness (endpoint OD595 vs no drug) (fraction); higher = more growth
S. pneumoniae D39V = system: S. pneumoniae D39V
Method in brief: (§1)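 At 37 °C, bacteria in TSB, LB Lennox or CY were grown in 384-well plates from a starting OD595 of 0.01. OD595 was measured every 30 min for 14 h, with the first reading used as background. Fitness is the optical density at the switch to stationary phase as a fraction of the robust mean of no-drug control wells, capped at 1.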

S. aureus DSM 20231 = system: S. aureus DSM 20231
Method in brief: as §1

S. aureus Newman = system: S. aureus Newman
Method in brief: as §1

B. subtilis 168 = system: B. subtilis 168
Method in brief: as §1
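Note: OD595 on entry to stationary phase over no-drug wells; at most 1.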

CC1(C)S[C@@H]2[C@H](NC(=O)[C@H](N)c3ccc(O)cc3)C(=O)N2[C@H]1C(=O)O [Amoxicillin] + CC(=O)Oc1ccccc1C(=O)O [Acetylsalicylic acid]
fitness
Conditions | first compound 0.0008 µg/mL | first compound 0.0015 µg/mL | first compound 0.003 µg/mL | first compound 0.0625 µg/mL | first compound 0.125 µg/mL | first compound 0.25 µg/mL | first compound 0.5 µg/mL
S. aureus DSM 20231, partner 250 µg/mL | – | – | – | 0.511 | 0.448 | 0.0498 | 0.0014
S. aureus DSM 20231, partner 500 µg/mL | – | – | – | 0.449 | 0.395 | 0.05 | 0.0115
S. aureus DSM 20231, partner 1000 µg/mL | – | – | – | 0.144 | 0.284 | 0.0643 | 0.0095
S. pneumoniae D39V, partner 250 µg/mL | 0.958 | 0.975 | 0.919 | – | – | – | –
S. pneumoniae D39V, partner 500 µg/mL | 0.939 | 0.923 | 0.905 | – | – | – | –
S. pneumoniae D39V, partner 1000 µg/mL | 0.774 | 0.896 | 0.865 | – | – | – | –

S. pneumoniae D39V, first compound 0.006 µg/mL, one replicate
Conditions | fitness
partner 250 µg/mL | 0.465
partner 500 µg/mL | 0.507
partner 1000 µg/mL | 0.483

CO/N=C(\C(=O)N[C@@H]1C(=O)N2C(C(=O)[O-])=C(C[N+]3(C)CCCC3)CS[C@H]12)c1csc(N)n1 [Cefepime] + CC1(C)S[C@@H]2[C@H](NC(=O)Cc3ccccc3)C(=O)N2[C@H]1C(=O)O [Penicillin G]
fitness, S. aureus Newman
Conditions | first compound 0.125 µg/mL | first compound 0.25 µg/mL | first compound 0.5 µg/mL
partner 0.0195 µg/mL | 0.868 | 0.801 | 0.712
partner 0.039 µg/mL | 0.895 | 0.811 | 0.695
partner 0.078 µg/mL | 0.871 | 0.773 | 0.704

CN(C)C(=O)C(CCN1CCC(O)(c2ccc(Cl)cc2)CC1)(c1ccccc1)c1ccccc1 [Loperamide] + CC(=O)NC[C@H]1CN(c2ccc(N3CCOCC3)c(F)c2)C(=O)O1 [Linezolid]
Conditions | fitness
B. subtilis 168, first compound 25 µg/mL, partner 0.125 µg/mL | 0.607
B. subtilis 168, first compound 25 µg/mL, partner 0.25 µg/mL | 0.066
B. subtilis 168, first compound 25 µg/mL, partner 0.5 µg/mL | 0.0361
B. subtilis 168, first compound 50 µg/mL, partner 0.25 µg/mL | 0.0362
B. subtilis 168, first compound 50 µg/mL, partner 0.5 µg/mL | 0.0318
B. subtilis 168, first compound 100 µg/mL, partner 0.125 µg/mL | 0.0357
B. subtilis 168, first compound 100 µg/mL, partner 0.25 µg/mL | 0.0269
B. subtilis 168, first compound 100 µg/mL, partner 0.5 µg/mL | 0.0353
S. pneumoniae D39V, first compound 17.14 µg/mL, partner 0.2 µg/mL | 0.815
S. pneumoniae D39V, first compound 17.14 µg/mL, partner 0.4 µg/mL | 0.709
S. pneumoniae D39V, first compound 17.14 µg/mL, partner 0.8 µg/mL | 0.414
S. pneumoniae D39V, first compound 20 µg/mL, partner 0.105 µg/mL | 0.938
S. pneumoniae D39V, first compound 20 µg/mL, partner 0.21 µg/mL | 0.839
S. pneumoniae D39V, first compound 20 µg/mL, partner 0.42 µg/mL | 0.652
S. pneumoniae D39V, first compound 34.28 µg/mL, partner 0.2 µg/mL | 0.806
S. pneumoniae D39V, first compound 34.28 µg/mL, partner 0.4 µg/mL | 0.701
S. pneumoniae D39V, first compound 34.28 µg/mL, partner 0.8 µg/mL | 0.367
S. pneumoniae D39V, first compound 40 µg/mL, partner 0.105 µg/mL | 0.947
S. pneumoniae D39V, first compound 40 µg/mL, partner 0.21 µg/mL | 0.843
S. pneumoniae D39V, first compound 40 µg/mL, partner 0.42 µg/mL | 0.58
S. pneumoniae D39V, first compound 80 µg/mL, partner 0.42 µg/mL | 0.179

one replicate
Conditions | fitness
B. subtilis 168, first compound 25 µg/mL, partner 0.0625 µg/mL | 0.584
B. subtilis 168, first compound 50 µg/mL, partner 0.0625 µg/mL | 0.0437
B. subtilis 168, first compound 100 µg/mL, partner 0.0625 µg/mL | 0.0474
S. pneumoniae D39V, first compound 68.57 µg/mL, partner 0.2 µg/mL | 0.91
S. pneumoniae D39V, first compound 68.57 µg/mL, partner 0.4 µg/mL | 0.884
S. pneumoniae D39V, first compound 68.57 µg/mL, partner 0.8 µg/mL | 0.532

CC1(C)S[C@@H]2[C@H](NC(=O)[C@H](N)c3ccc(O)cc3)C(=O)N2[C@H]1C(=O)O [Amoxicillin] + CC1(C)S[C@@H]2[C@H](NC(=O)Cc3ccccc3)C(=O)N2[C@H]1C(=O)O [Penicillin G]
fitness, S. aureus Newman
Conditions | first compound 0.0625 µg/mL | first compound 0.125 µg/mL | first compound 0.25 µg/mL
partner 0.0195 µg/mL | 0.845 | 0.855 | –
partner 0.039 µg/mL | 0.878 | 0.833 | 0.797
partner 0.078 µg/mL | 0.796 | 0.801 | 0.807

CC1(C)S[C@@H]2[C@H](NC(=O)[C@H](N)c3ccc(O)cc3)C(=O)N2[C@H]1C(=O)O [Amoxicillin] + O=C(O)[C@H]1/C(=C/CO)O[C@@H]2CC(=O)N21 [Clavulanic acid]
fitness, S. pneumoniae D39V
Conditions | first compound 0.0008 µg/mL | first compound 0.0015 µg/mL | first compound 0.003 µg/mL
partner 0.5 µg/mL | 0.913 | 0.945 | 0.914
partner 1 µg/mL | 0.886 | 0.87 | 0.852
partner 2 µg/mL | 0.812 | 0.819 | 0.713

fitness, one replicate
Conditions | partner 0.03125 µg/mL | partner 0.0625 µg/mL | partner 0.125 µg/mL | partner 0.5 µg/mL | partner 1 µg/mL | partner 2 µg/mL
S. aureus Newman, first compound 0.0625 µg/mL | 0.895 | 0.816 | 0.768 | – | – | –
S. aureus Newman, first compound 0.125 µg/mL | 0.831 | 0.809 | 0.639 | – | – | –
S. aureus Newman, first compound 0.25 µg/mL | 0.717 | 0.628 | 0.606 | – | – | –
S. pneumoniae D39V, first compound 0.006 µg/mL | – | – | – | 0.391 | 0.315 | 0.242
